From patent US9204653B2, “5-fluoro pyrimidine derivatives” (DOW AGROSCIENCES LLC, priority 2008, dated 2015)
Read-outs that look alike come from different tables or passages of the source.

Tests used:
[1] = system: Mycosphaerella graminicola; Anamorph: Septoria tritici; Bayer Code SEPTTR; test: Leaf blotch of wheat, foliar fungicide treatment, one day protectant (1DP) or three day curative (3DC); format: in vivo, Septoria tritici on wheat plants (variety Yuma); conditions: Zymoseptoria tritici, rating of percent disease control
[2] = system: Cercospora beticola; Bayer Code CERCBE; test: Leaf spot of sugar beets; format: in vivo, Cercospora beticola on sugar beets (variety HH-88); conditions: 24 h, % disease control rating, one day protectant; for pest or weed control at 25 ppm: read-out: CERCBE 1 DP 25 ppm; for pest or weed control at 75 ppm: read-out: CERCBE 1 DP 75 ppm
[3] = system: Venturia inaequalis; Bayer Code VENTIN; test: Apple scab; format: in vivo; conditions: 24 h, % disease control rating, one day protectant; for pest or weed control at 25 ppm: read-out: VENTIN 1 DP 25 ppm; for pest or weed control at 75 ppm: read-out: VENTIN 1 DP 75 ppm
[4] = 24 h, one day protectant, read-out: SETTTR 1DP 25 ppm
[5] = 24 h, one day protectant, read-out: SEPTTR 1DP 100 ppm
[6] = 72 h, three day curative, read-out: SEPTTR 3DC 25 ppm
[7] = 72 h, three day curative, read-out: SEPTTR 3DC 100 ppm

Cc1ccc(COc2ncc(F)c(NN)n2)cc1 [Compound 538]
pest or weed control at 25 ppm ([1]; 24 h, one day protectant (1DP), read-out: SETTTR 1DP 25 ppm): 26 to 50%
pest or weed control at 100 ppm ([1]; 24 h, one day protectant (1DP), read-out: SEPTTR 1DP 100 ppm): 51 to 75%
pest or weed control at 25 ppm ([1]; 72 h, three day curative (3DC), read-out: SEPTTR 3DC 25 ppm): 51 to 75%
pest or weed control at 100 ppm ([1]; 72 h, three day curative (3DC), read-out: SEPTTR 3DC 100 ppm): 76 to 100%
pest or weed control at 25 ppm [2]: 0 to 25%
pest or weed control at 75 ppm [2]: 0 to 25%
pest or weed control at 25 ppm [3]: 26 to 50%
pest or weed control at 75 ppm [3]: 51 to 75%

Nc1nc(OCc2cc3ccccc3o2)ncc1F [Compound 554]
pest or weed control at 25 ppm [1, 4]: 26 to 50%
pest or weed control at 100 ppm [1, 5]: 76 to 100%
pest or weed control at 25 ppm [1, 6]: 26 to 50%
pest or weed control at 100 ppm [1, 7]: 76 to 100%
pest or weed control at 25 ppm [2]: 0 to 25%
pest or weed control at 75 ppm [2]: 51 to 75%
pest or weed control at 25 ppm [3]: 76 to 100%
pest or weed control at 75 ppm [3]: 76 to 100%

Nc1nc(OC2CCCc3cccnc32)ncc1F (stereo not drawn) [Compound 560]
pest or weed control at 25 ppm [1, 4]: 0 to 25%
pest or weed control at 100 ppm [1, 5]: 26 to 50%
pest or weed control at 25 ppm [1, 6]: 0 to 25%
pest or weed control at 100 ppm [1, 7]: 76 to 100%
pest or weed control at 25 ppm [2]: 0 to 25%
pest or weed control at 75 ppm [2]: 26 to 50%
pest or weed control at 25 ppm [3]: 0 to 25%
pest or weed control at 75 ppm [3]: 76 to 100%

C=CCc1cc(COc2ncc(F)c(N)n2)cc(OC)c1OC [Compound 569]
pest or weed control at 25 ppm [1, 4]: 76 to 100%
pest or weed control at 100 ppm [1, 5]: 76 to 100%
pest or weed control at 25 ppm [1, 6]: 51 to 75%
pest or weed control at 100 ppm [1, 7]: 76 to 100%
pest or weed control at 25 ppm [2]: 26 to 50%
pest or weed control at 75 ppm [2]: 76 to 100%
pest or weed control at 25 ppm [3]: 76 to 100%
pest or weed control at 75 ppm [3]: 76 to 100%

CN(C)/C=N/c1nc(OCc2cccs2)ncc1F [Compound 570]
pest or weed control at 25 ppm [1, 4]: 76 to 100%
pest or weed control at 100 ppm [1, 5]: 76 to 100%
pest or weed control at 25 ppm [1, 6]: 76 to 100%
pest or weed control at 100 ppm [1, 7]: 76 to 100%
pest or weed control at 25 ppm [2]: 0 to 25%
pest or weed control at 75 ppm [2]: 26 to 50%
pest or weed control at 25 ppm [3]: 26 to 50%
pest or weed control at 75 ppm [3]: 76 to 100%

Nc1nc(OCc2cnc(Cl)c(Cl)c2)ncc1F [Compound 582]
pest or weed control at 25 ppm [1, 4]: 76 to 100%
pest or weed control at 100 ppm [1, 5]: 76 to 100%
pest or weed control at 25 ppm [1, 6]: 76 to 100%
pest or weed control at 100 ppm [1, 7]: 76 to 100%
pest or weed control at 25 ppm [2]: 51 to 75%
pest or weed control at 75 ppm [2]: 51 to 75%
pest or weed control at 25 ppm [3]: 76 to 100%
pest or weed control at 75 ppm [3]: 76 to 100%

CCn1nccc1Oc1ncc(F)c(N)n1 [Compound 584]
pest or weed control at 25 ppm [1, 4]: 0 to 25%
pest or weed control at 100 ppm [1, 5]: 76 to 100%
pest or weed control at 25 ppm [1, 6]: 0 to 25%
pest or weed control at 100 ppm [1, 7]: 76 to 100%
pest or weed control at 25 ppm [2]: 26 to 50%
pest or weed control at 75 ppm [2]: 26 to 50%
pest or weed control at 25 ppm [3]: 26 to 50%
pest or weed control at 75 ppm [3]: 26 to 50%

Nc1nc(Oc2cccc(Cl)c2)ncc1F [Compound 593]
pest or weed control at 25 ppm [1, 4]: 0 to 25%
pest or weed control at 100 ppm [1, 5]: 51 to 75%
pest or weed control at 25 ppm [2]: 26 to 50%
pest or weed control at 75 ppm [2]: 51 to 75%
pest or weed control at 25 ppm [3]: 76 to 100%
pest or weed control at 75 ppm [3]: 76 to 100%

Fc1cnc(OCc2ccccc2)nc1/N=C/N1CCOCC1 [Compound 626]
pest or weed control at 25 ppm [1, 4]: 76 to 100%
pest or weed control at 100 ppm [1, 5]: 76 to 100%
pest or weed control at 25 ppm [1, 6]: 76 to 100%
pest or weed control at 100 ppm [1, 7]: 76 to 100%
pest or weed control at 25 ppm [2]: 0 to 25%
pest or weed control at 75 ppm [2]: 0 to 25%
pest or weed control at 25 ppm [3]: 26 to 50%
pest or weed control at 75 ppm [3]: 76 to 100%

Nc1nc(OCc2csc3ccccc23)ncc1F [Compound 630]
pest or weed control at 25 ppm [1, 4]: 76 to 100%
pest or weed control at 100 ppm [1, 5]: 76 to 100%
pest or weed control at 25 ppm [1, 6]: 76 to 100%
pest or weed control at 100 ppm [1, 7]: 76 to 100%
pest or weed control at 25 ppm [2]: 0 to 25%
pest or weed control at 75 ppm [2]: 0 to 25%
pest or weed control at 25 ppm [3]: 51 to 75%
pest or weed control at 75 ppm [3]: 76 to 100%

C=CC(C)Oc1ncc(F)c(N)n1 (stereo not drawn) [Compound 631]
pest or weed control at 25 ppm [1, 4]: 0 to 25%
pest or weed control at 100 ppm [1, 5]: 0 to 25%
pest or weed control at 25 ppm [1, 6]: 0 to 25%
pest or weed control at 100 ppm [1, 7]: 0 to 25%
pest or weed control at 25 ppm [2]: 0 to 25%
pest or weed control at 75 ppm [2]: 0 to 25%
pest or weed control at 25 ppm [3]: 0 to 25%
pest or weed control at 75 ppm [3]: 26 to 50%

Nc1nc(OCCCc2ccccn2)ncc1F [Compound 635]
pest or weed control at 25 ppm [1, 4]: 26 to 50%
pest or weed control at 100 ppm [1, 5]: 76 to 100%
pest or weed control at 25 ppm [1, 6]: 0 to 25%
pest or weed control at 100 ppm [1, 7]: 76 to 100%
pest or weed control at 25 ppm [2]: 26 to 50%
pest or weed control at 75 ppm [2]: 26 to 50%
pest or weed control at 25 ppm [3]: 26 to 50%
pest or weed control at 75 ppm [3]: 76 to 100%

COc1ccc(Oc2ncc(F)c(NC(C)=O)n2)cc1 [Compound 649]
pest or weed control at 25 ppm [1, 4]: 0 to 25%
pest or weed control at 100 ppm [1, 5]: 26 to 50%
pest or weed control at 25 ppm [1, 6]: 0 to 25%
pest or weed control at 100 ppm [1, 7]: 76 to 100%
pest or weed control at 25 ppm [2]: 0 to 25%
pest or weed control at 75 ppm [2]: 0 to 25%
pest or weed control at 25 ppm [3]: 26 to 50%
pest or weed control at 75 ppm [3]: 26 to 50%
